Literature values in PMC4628094, “In Vitro Assessment of Uptake and Lysosomal Sequestration of Respiratory Drugs in Alveolar Macrophage Cell Line NR8383” (Pharmaceutical Research, 2015).
Read-outs that look alike come from different tables or passages of the source.

Key:
[1] = test system: Mouse peritoneal macrophages; parameters: method as in ref (1) (a number printed in a supplementary file, which may have a reference list of its own: not looked up in the article's list); settings: drug 50 µM, 120 min, ref (1), cited from earlier work
[2] = test system: Lung tissue slices from male Wistar rats; parameters: method as in ref (5) (a number printed in a supplementary file, which may have a reference list of its own: not looked up in the article's list); settings: NH4Cl 20 mM, drug 5 µM, 60 min, ref (5); cited from earlier work
[3] = test system: Liver tissue slices from male Wistar rats; parameters: method as in ref (5) (a number printed in a supplementary file, which may have a reference list of its own: not looked up in the article's list); settings: NH4Cl 20 mM, drug 5 µM, 60 min, ref (5); cited from earlier work
[4] = test system: Lung tissue slices from male Wistar rats; parameters: method as in ref (8) (a number printed in a supplementary file, which may have a reference list of its own: not looked up in the article's list); settings: NH4Cl 20 mM, drug 5 µM, 60 min, ref (8); cited from earlier work
[5] = test system: Liver tissue slices from male Wistar rats; parameters: method as in ref (8) (a number printed in a supplementary file, which may have a reference list of its own: not looked up in the article's list); settings: NH4Cl 20 mM, drug 5 µM, 60 min, ref (8); cited from earlier work
[6] = test system: Lung tissue slices from male Wistar rats; parameters: method as in ref (9) (a number printed in a supplementary file, which may have a reference list of its own: not looked up in the article's list); settings: NH4Cl 20 mM, drug 5 µM, 60 min, ref (9); cited from earlier work
[7] = test system: Liver tissue slices from male Wistar rats; parameters: method as in ref (9) (a number printed in a supplementary file, which may have a reference list of its own: not looked up in the article's list); settings: NH4Cl 20 mM, drug 5 µM, 60 min, ref (9); cited from earlier work
[8] = test system: Brain slices from male Wistar rats; parameters: method as in ref (10) (a number printed in a supplementary file, which may have a reference list of its own: not looked up in the article's list); settings: drug 5 µM, 60 min, ref (10), cited from earlier work; for Reduction in total uptake (%): NH4Cl 20 mM; for Reduction of total uptake (%): monensin 10 µM
[9] = test system: Lung tissue slices from male Wistar rats; parameters: method as in ref (14) (a number printed in a supplementary file, which may have a reference list of its own: not looked up in the article's list); settings: monensin 10 µM, drug 5 µM, 60 min, ref (14); cited from earlier work
[10] = test system: Liver tissue slices from male Wistar rats; parameters: method as in ref (14) (a number printed in a supplementary file, which may have a reference list of its own: not looked up in the article's list); settings: monensin 10 µM, drug 5 µM, 60 min, ref (14); cited from earlier work
[11] = test system: Lung granule fraction containing lysosomes from male Wistar rats; parameters: method as in ref (6) (a number printed in a supplementary file, which may have a reference list of its own: not looked up in the article's list); settings: NH4Cl 10 mM, drug 1 µM, 10 min; ref (6); cited from earlier work
[12] = test system: Lung tissue slices from male Wistar rats; parameters: method as in ref (7) (a number printed in a supplementary file, which may have a reference list of its own: not looked up in the article's list); settings: NH4Cl 3 mg/min/kg (i.v. infusion), drug 3.2 mg/kg (i.v. injection), 360 min, ref (7); cited from earlier work
[13] = test system: Liver tissue slices from male Wistar rats; parameters: method as in ref (7) (a number printed in a supplementary file, which may have a reference list of its own: not looked up in the article's list); settings: NH4Cl 3 mg/min/kg (i.v. infusion), drug 3.2 mg/kg (i.v. injection), 360 min, ref (7); cited from earlier work

Row | SMILES | Reduction in total uptake (%) ([1]; NH4Cl 10 mM) | Reduction of total uptake (%) ([1]; nigericin 5 µg/ml (~7 µM)) | Reduction in total uptake (%) [2] [%] | Reduction in total uptake (%) [3] [%] | Reduction in total uptake (%) [4] [%] | Reduction in total uptake (%) [5] [%] | Reduction in total uptake (%) [6] [%] | Reduction in total uptake (%) [7] [%] | Reduction in total uptake (%) [8] [%] | Reduction of total uptake (%) [8] [%] | Reduction of total uptake (%) [9] [%] | Reduction of total uptake (%) [10] [%] | Reduction in total uptake (%) [11] [%] | Reduction in total uptake (%) [12] [%] | Reduction in total uptake (%) [13] [%]
1 | CN [Methylamine] | 54 | 49 |  |  |  |  |  |  |  |  |  |  |  |  | 
2 | CN(C)CCC=C1c2ccccc2CCc2ccccc21 [Amitriptyline] |  |  | 63 | 40 | 56 | 68 | 47 | 67 | 32 | 31 | 70 | 48 |  |  | 
3 | OC(CCN1CCCCC1)(c1ccccc1)C1CC2C=CC1C2 (stereo not drawn) [Biperiden] |  |  |  |  |  |  |  |  |  |  |  |  | 56 | 77 | 2.5
4 | CN(C)CCCN1c2ccccc2Sc2ccccc21 [Promazine] |  |  | 46.8 | 59 |  |  |  |  | 20 | 35 | 71 | 86 |  |  | 
